Tests used:
[1] = molecular target: Ephrin type-B receptor 1 (Homo sapiens) (UniProt P54762); conditions: Compound concentration 1000.0 nM
[2] = molecular target: Serine/threonine-protein kinase SBK1 (Homo sapiens) (UniProt Q52WX2); conditions: Compound concentration 1000.0 nM
[3] = molecular target: Non-receptor tyrosine-protein kinase TNK1 (Homo sapiens) (UniProt Q13470); conditions: Compound concentration 1000.0 nM
[4] = molecular target: Sigma non-opioid intracellular receptor 1 (Homo sapiens) (UniProt Q99720); conditions: Compound concentration 10.0 uM
[5] = molecular target: GABA-A receptor; anion channel (Rattus norvegicus) (UniProt O09028+P15431+P18506+P18508+P19969+P20236+P23574+P23576+P28471+P28473+P30191+P62813+P63079+P63138+Q91ZM7+Q9ES14); conditions: Compound concentration 10.0 uM
[6] = molecular target: Serine/threonine-protein kinase ULK2 (Homo sapiens) (UniProt Q8IYT8); conditions: Compound concentration 1000.0 nM
[7] = molecular target: RAC-beta serine/threonine-protein kinase (Homo sapiens) (UniProt P31751); conditions: Compound concentration 1000.0 nM
[8] = molecular target: Serine/threonine-protein kinase PLK2 (Homo sapiens) (UniProt Q9NYY3); conditions: Compound concentration 1000.0 nM
Sequence of Serine/threonine-protein kinase PLK2 (Homo sapiens) (Q9NYY3 whole entry, looked up): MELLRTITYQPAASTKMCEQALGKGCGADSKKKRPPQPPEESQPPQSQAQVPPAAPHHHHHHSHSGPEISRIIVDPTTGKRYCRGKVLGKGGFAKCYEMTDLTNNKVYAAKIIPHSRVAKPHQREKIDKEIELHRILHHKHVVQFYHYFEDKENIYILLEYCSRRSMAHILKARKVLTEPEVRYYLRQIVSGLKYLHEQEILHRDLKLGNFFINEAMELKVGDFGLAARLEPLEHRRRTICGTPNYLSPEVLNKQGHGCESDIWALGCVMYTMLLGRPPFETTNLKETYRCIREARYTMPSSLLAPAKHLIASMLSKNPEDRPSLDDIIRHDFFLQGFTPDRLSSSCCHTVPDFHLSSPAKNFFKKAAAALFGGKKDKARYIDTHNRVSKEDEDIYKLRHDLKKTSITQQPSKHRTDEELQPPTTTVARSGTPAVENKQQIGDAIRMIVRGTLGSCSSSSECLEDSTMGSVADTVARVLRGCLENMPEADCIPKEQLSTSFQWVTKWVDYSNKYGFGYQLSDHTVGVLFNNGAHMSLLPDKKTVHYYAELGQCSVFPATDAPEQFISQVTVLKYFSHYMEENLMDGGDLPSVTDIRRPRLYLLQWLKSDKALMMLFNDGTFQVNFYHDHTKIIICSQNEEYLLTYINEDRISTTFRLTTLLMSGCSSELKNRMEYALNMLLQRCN

[9] = molecular target: Mitogen-activated protein kinase kinase kinase kinase 5 (Homo sapiens) (UniProt Q9Y4K4); conditions: Compound concentration 1000.0 nM
[10] = molecular target: Serine/threonine-protein kinase 26 (Homo sapiens) (UniProt Q9P289); conditions: Compound concentration 1000.0 nM
[11] = molecular target: Serine/threonine-protein kinase N1 (Homo sapiens) (UniProt Q16512); conditions: Compound concentration 1000.0 nM
[12] = molecular target: Tyrosine-protein kinase Fer (Homo sapiens) (UniProt P16591); conditions: Compound concentration 1000.0 nM
[13] = tested on: Receptor-type tyrosine-protein kinase FLT3 (Homo sapiens), P36888 [D835Y]; conditions: Compound concentration 1000.0 nM
[14] = molecular target: Transient receptor potential cation channel subfamily M member 6 (Homo sapiens) (UniProt Q9BX84); conditions: Compound concentration 1000.0 nM
[15] = tested on: Epidermal growth factor receptor (Homo sapiens), P00533 [L861Q]; conditions: Compound concentration 1000.0 nM
[16] = molecular target: D(2) dopamine receptor (Homo sapiens) (UniProt P14416); conditions: Compound concentration 10.0 uM
[17] = molecular target: Histamine H3 receptor (Homo sapiens) (UniProt Q9Y5N1); conditions: Compound concentration 10.0 uM
Sequence of Histamine H3 receptor (Homo sapiens) (Q9Y5N1 whole entry): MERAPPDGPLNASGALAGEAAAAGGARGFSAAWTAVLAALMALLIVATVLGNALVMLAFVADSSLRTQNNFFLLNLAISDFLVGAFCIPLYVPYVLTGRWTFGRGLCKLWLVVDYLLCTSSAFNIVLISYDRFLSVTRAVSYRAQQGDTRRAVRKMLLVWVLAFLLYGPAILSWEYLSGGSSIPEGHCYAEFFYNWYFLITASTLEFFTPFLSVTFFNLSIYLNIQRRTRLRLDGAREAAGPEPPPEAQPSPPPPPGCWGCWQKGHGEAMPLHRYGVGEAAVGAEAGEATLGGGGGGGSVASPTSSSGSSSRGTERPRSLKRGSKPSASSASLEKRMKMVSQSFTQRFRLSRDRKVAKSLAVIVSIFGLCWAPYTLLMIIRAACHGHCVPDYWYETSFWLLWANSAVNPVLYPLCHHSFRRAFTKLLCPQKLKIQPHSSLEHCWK

[18] = molecular target: Dual specificity mitogen-activated protein kinase kinase 4 (Homo sapiens) (UniProt P45985); conditions: Compound concentration 1000.0 nM
[19] = molecular target: Leucine-rich repeat serine/threonine-protein kinase 2 (Homo sapiens) (UniProt Q5S007); conditions: Compound concentration 1000.0 nM
[20] = molecular target: Rhodopsin kinase GRK1 (Homo sapiens) (UniProt Q15835); conditions: Compound concentration 1000.0 nM
Sequence of Rhodopsin kinase GRK1 (Homo sapiens) (Q15835 whole entry): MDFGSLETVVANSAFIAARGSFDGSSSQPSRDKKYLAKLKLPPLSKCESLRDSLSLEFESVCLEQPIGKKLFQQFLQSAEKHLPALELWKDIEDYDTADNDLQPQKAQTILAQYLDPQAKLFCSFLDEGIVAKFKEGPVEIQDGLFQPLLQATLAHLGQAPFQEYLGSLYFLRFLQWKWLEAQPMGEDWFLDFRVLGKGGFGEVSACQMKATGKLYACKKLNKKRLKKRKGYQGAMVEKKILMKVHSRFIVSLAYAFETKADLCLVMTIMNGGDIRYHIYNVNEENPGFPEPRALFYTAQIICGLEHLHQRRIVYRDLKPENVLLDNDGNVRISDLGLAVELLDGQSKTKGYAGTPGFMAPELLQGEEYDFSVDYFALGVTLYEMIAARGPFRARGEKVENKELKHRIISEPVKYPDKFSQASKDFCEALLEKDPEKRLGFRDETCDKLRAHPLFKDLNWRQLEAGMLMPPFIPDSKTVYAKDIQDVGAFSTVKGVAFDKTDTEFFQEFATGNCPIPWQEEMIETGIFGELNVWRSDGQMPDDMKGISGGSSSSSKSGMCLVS

[21] = molecular target: Death-associated protein kinase 1 (Homo sapiens) (UniProt P53355); conditions: Compound concentration 1000.0 nM
[22] = molecular target: Discoidin domain-containing receptor 2 (Homo sapiens) (UniProt Q16832); conditions: Compound concentration 1000.0 nM
[23] = molecular target: Mast/stem cell growth factor receptor Kit (Homo sapiens) (UniProt P10721); conditions: Compound concentration 1000.0 nM
Sequence of Mast/stem cell growth factor receptor Kit (Homo sapiens) (P10721 whole entry): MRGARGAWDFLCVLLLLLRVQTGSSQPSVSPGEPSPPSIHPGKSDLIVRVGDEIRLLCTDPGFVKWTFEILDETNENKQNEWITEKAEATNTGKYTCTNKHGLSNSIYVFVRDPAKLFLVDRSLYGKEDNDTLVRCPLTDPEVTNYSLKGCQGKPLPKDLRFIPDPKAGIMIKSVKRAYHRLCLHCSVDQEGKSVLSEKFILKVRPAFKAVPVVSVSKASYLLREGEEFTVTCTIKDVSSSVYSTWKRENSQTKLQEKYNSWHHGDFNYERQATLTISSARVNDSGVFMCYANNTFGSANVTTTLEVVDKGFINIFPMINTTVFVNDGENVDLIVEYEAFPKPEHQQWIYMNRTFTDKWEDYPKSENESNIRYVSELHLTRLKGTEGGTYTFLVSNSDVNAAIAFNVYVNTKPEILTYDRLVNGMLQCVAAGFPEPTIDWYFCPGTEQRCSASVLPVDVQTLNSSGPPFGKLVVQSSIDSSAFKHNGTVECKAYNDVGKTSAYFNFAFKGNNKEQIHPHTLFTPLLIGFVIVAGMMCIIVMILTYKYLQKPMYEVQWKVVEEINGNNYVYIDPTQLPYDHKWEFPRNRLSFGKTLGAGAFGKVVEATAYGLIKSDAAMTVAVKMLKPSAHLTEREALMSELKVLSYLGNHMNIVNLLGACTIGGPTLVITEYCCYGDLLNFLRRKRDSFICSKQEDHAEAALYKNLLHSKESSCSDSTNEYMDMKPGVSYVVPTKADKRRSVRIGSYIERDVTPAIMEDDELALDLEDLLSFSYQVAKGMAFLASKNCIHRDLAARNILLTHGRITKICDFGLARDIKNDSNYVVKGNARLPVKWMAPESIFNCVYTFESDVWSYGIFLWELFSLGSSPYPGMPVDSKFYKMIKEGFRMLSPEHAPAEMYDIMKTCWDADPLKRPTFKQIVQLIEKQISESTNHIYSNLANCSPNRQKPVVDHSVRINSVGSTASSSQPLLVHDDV

[24] = molecular target: Serine/threonine-protein kinase STK11 (Homo sapiens) (UniProt Q15831); conditions: Compound concentration 1000.0 nM
[25] = molecular target: High affinity nerve growth factor receptor (Homo sapiens) (UniProt P04629); conditions: Compound concentration 1000.0 nM
[26] = molecular target: SNF-related serine/threonine-protein kinase (Homo sapiens) (UniProt Q9NRH2); conditions: Compound concentration 1000.0 nM
[27] = molecular target: Casein kinase I isoform gamma-1 (Homo sapiens) (UniProt Q9HCP0); conditions: Compound concentration 1000.0 nM
[28] = molecular target: Fibroblast growth factor receptor 3 (Homo sapiens) (UniProt P22607); conditions: Compound concentration 1000.0 nM
[29] = molecular target: Calcium/calmodulin-dependent protein kinase type 1 (Homo sapiens) (UniProt Q14012); conditions: Compound concentration 1000.0 nM
[30] = molecular target: Cyclin-dependent kinase 5 (Homo sapiens) (UniProt Q00535); conditions: Compound concentration 1000.0 nM
[31] = tested on: Epidermal growth factor receptor (Homo sapiens), P00533 [UNDEFINED MUTATION]; conditions: Compound concentration 1000.0 nM
[32] = tested on: Hepatocyte growth factor receptor (Homo sapiens), P08581 [M1250T]; conditions: Compound concentration 1000.0 nM
[33] = molecular target: Ribosomal protein S6 kinase alpha-4 (Homo sapiens) (UniProt O75676); conditions: Compound concentration 1000.0 nM
Sequence of Ribosomal protein S6 kinase alpha-4 (Homo sapiens) (O75676 whole entry, looked up): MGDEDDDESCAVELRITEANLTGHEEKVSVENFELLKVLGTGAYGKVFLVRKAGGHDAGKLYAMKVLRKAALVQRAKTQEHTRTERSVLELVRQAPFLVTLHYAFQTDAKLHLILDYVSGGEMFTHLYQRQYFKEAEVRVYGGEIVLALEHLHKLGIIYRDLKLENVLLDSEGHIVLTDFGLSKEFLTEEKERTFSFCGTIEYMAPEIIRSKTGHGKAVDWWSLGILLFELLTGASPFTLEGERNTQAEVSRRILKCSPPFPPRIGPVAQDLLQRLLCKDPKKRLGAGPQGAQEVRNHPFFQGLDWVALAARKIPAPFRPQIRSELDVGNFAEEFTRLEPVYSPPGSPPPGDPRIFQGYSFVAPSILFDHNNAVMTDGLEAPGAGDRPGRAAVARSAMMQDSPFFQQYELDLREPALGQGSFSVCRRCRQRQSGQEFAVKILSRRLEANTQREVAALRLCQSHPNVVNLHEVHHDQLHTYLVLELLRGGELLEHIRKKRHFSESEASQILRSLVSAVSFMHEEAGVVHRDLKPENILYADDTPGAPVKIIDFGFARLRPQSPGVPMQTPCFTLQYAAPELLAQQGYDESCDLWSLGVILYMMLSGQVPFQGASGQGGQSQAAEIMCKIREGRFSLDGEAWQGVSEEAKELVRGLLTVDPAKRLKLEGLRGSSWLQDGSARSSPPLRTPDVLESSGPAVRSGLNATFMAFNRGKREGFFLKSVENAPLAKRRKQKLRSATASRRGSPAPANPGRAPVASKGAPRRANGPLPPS

[34] = molecular target: Phosphatidylinositol 4-kinase beta (Homo sapiens) (UniProt Q9UBF8); conditions: Compound concentration 1000.0 nM
[35] = molecular target: MAP kinase-interacting serine/threonine-protein kinase 2 (Homo sapiens) (UniProt Q9HBH9); conditions: Compound concentration 1000.0 nM
Sequence of MAP kinase-interacting serine/threonine-protein kinase 2 (Homo sapiens) (Q9HBH9 whole entry, looked up): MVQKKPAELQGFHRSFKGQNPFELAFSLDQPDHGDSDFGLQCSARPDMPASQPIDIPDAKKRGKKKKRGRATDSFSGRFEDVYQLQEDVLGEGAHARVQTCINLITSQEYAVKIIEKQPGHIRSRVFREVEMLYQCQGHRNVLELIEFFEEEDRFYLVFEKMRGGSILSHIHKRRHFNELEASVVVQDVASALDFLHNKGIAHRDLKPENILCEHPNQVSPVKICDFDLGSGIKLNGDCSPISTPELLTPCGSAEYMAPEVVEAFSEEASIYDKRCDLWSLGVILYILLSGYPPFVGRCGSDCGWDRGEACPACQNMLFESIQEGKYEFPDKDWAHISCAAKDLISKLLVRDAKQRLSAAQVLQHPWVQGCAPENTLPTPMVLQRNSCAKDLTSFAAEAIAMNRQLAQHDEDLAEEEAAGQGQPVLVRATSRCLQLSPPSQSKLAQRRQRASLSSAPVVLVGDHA

[36] = molecular target: Testis-specific serine/threonine-protein kinase 1 (Homo sapiens) (UniProt Q9BXA7); conditions: Compound concentration 1000.0 nM
[37] = molecular target: Mitogen-activated protein kinase kinase kinase 9 (Homo sapiens) (UniProt P80192); conditions: Compound concentration 1000.0 nM
[38] = molecular target: Mast/stem cell growth factor receptor Kit (Homo sapiens) (UniProt P10721); conditions: Compound concentration 1000.0 nM; remark: listed apart in the source
[39] = molecular target: Cyclin-dependent kinase 17 (Homo sapiens) (UniProt Q00537); conditions: Compound concentration 1000.0 nM
[40] = molecular target: Myosin-IIIa (Homo sapiens) (UniProt Q8NEV4); conditions: Compound concentration 1000.0 nM
[41] = tested on: Proto-oncogene tyrosine-protein kinase receptor Ret (Homo sapiens), P07949 [M918T]; conditions: Compound concentration 1000.0 nM
[42] = molecular target: Serine/threonine-protein kinase DCLK2 (Homo sapiens) (UniProt Q8N568); conditions: Compound concentration 1000.0 nM
[43] = molecular target: Mitogen-activated protein kinase 12 (Homo sapiens) (UniProt P53778); conditions: Compound concentration 1000.0 nM

Sequence of Ephrin type-B receptor 1 (Homo sapiens) (P54762 whole entry): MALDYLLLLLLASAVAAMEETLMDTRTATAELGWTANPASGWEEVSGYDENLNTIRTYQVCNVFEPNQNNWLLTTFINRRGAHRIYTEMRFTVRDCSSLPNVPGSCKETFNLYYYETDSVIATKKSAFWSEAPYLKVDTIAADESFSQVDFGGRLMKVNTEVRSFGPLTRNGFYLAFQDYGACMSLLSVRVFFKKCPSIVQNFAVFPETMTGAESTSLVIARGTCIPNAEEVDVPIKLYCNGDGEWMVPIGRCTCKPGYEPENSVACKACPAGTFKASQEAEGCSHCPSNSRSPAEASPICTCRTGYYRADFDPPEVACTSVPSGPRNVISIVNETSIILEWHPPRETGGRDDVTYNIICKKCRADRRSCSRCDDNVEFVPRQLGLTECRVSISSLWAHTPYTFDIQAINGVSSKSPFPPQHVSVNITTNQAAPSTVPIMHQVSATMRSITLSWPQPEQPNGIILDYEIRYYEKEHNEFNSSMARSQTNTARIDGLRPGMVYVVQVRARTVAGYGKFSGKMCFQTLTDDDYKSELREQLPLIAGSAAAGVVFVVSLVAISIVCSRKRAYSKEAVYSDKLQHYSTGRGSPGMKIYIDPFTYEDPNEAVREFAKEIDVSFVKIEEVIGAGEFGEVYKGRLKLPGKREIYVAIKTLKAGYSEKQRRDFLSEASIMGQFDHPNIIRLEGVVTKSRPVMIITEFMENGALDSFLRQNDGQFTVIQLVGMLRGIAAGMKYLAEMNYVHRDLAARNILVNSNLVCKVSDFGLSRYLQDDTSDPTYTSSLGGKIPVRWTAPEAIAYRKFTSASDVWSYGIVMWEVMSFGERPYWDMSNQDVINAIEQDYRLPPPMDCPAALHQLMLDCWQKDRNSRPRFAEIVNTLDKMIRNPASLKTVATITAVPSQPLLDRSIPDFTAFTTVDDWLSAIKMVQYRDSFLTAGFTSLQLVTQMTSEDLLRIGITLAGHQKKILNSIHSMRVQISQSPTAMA

CCC(=O)N[C@@H]1CC[C@H](C(=O)N(C)c2ccc(-c3nc4ccccc4o3)cc2)C1 [BI 99990]
inactive: residual activity [1] 100% | residual activity [2] 100% | residual activity [3] 100% | inhibition [4] 38.3% | inhibition [5] 40.3% | residual activity [6] 100% | residual activity [7] 72% | residual activity [8] 100% | residual activity [9] 91% | residual activity [10] 77% | residual activity [11] 84% | residual activity [12] 99% | residual activity [13] 100% | residual activity [14] 84% | residual activity [15] 95% | inhibition [16] 18.6% | inhibition [17] 1.65% | residual activity [18] 100% | residual activity [19] 100% | residual activity [20] 76% | residual activity [21] 100% | residual activity [22] 92% | residual activity [23] 100% | residual activity [24] 51% | residual activity [25] 100% | residual activity [26] 100% | residual activity [27] 100% | residual activity [28] 100% | residual activity [29] 100% | residual activity [30] 100% | residual activity [31] 75% | residual activity [32] 100% | residual activity [33] 100% | residual activity [34] 100% | residual activity [35] 100% | residual activity [36] 76% | residual activity [37] 100% | residual activity [38] 93% | residual activity [39] 100% | residual activity [40] 100% | residual activity [41] 100% | residual activity [42] 89% | residual activity [43] 73%

CCC(=O)N[C@H]1CC[C@@H](C(=O)N(C)c2ccc(-c3nc4ccccc4o3)cc2)C1 [BI 99179]
inactive: residual activity [1] 100% | residual activity [2] 94% | residual activity [3] 100% | inhibition [4] 9.78% | inhibition [5] 23.2% | residual activity [6] 75% | residual activity [7] 89% | residual activity [8] 96% | residual activity [9] 100% | residual activity [10] 76% | residual activity [11] 83% | residual activity [12] 90% | residual activity [13] 100% | residual activity [14] 76% | residual activity [15] 100% | inhibition [16] 14.3% | inhibition [17] -8.17% | residual activity [18] 95% | residual activity [19] 71% | residual activity [20] 77% | residual activity [21] 96% | residual activity [22] 100% | residual activity [23] 94% | residual activity [24] 100% | residual activity [25] 75% | residual activity [26] 100% | residual activity [27] 90% | residual activity [28] 98% | residual activity [29] 95% | residual activity [30] 87% | residual activity [31] 79% | residual activity [32] 92% | residual activity [33] 100% | residual activity [34] 77% | residual activity [35] 100% | residual activity [36] 91% | residual activity [37] 100% | residual activity [38] 84% | residual activity [39] 100% | residual activity [40] 100% | residual activity [41] 100% | residual activity [42] 98% | residual activity [43] 67%

From ChEMBL document CHEMBL4507280 (2021)
